Experimental data from article PMC6153936, “Bisarylureas Based on 1H-Pyrazolo[3,4-d]pyrimidine Scaffold as Novel Pan-RAF Inhibitors with Potent Anti-Proliferative Activities: Structure-Based Design, Synthesis, Biological Evaluation and Molecular Modelling Studies” (Molecules : A Journal of Synthetic Chemistry and Natural …, 2017).
pIC50: −log10 of the molar value.

Key:
BRAF^V600E = biological target: T1, BRAF^V600E (Homo sapiens, UniProt P15056, V600E); assay: BRAF^V600E kinase inhibition, Z'-LYTE; format: biochemical; conditions: for inhibition at 0.1 µM: 100 nM; for pIC50: ten concentrations 1000 to 0.0508 nM, two independent experiments
T1 construct: purchased Life Technologies
Procedure: The experiments were performed according to the instructions of the manufacturer, and single point concentration testing with two independent data points (n = 2). […] The IC50 values were calculated from the inhibition curves from two separate experiments.

A375 = assay: MTT anti-proliferative assay, A375; format: cell-based; conditions: Homo sapiens, A-375, 48 h
Procedure: (§1) All cell lines were purchased from Cell Bank of China Science Academy (Shanghai, China). All chemicals and solvents were purchased from Sigma-Aldrich (St. Louis, MO, USA) or Gibco (Gibco BRL, Grand Island, NY, USA). The PC-3 and A375 cell lines was maintained in Dulbecco's modified eagle (DEME) medium supplement with 10% fetal bovine serum (FBS) and 1% penicillin–streptomycin. The others were cultured in Roswell Park Memorial Institute (RPMI) 1640 medium supplement with 10% fetal bovine serum (FBS) and 1% penicillin–streptomycin. Approximately 5 × 10^3 cells, suspended in medium, were plated into each well of a 96-well plate and grown at 37 °C in a humidified atmosphere with 5% CO2 for 24 h. The following day, various concentrations of tested compounds were added to the culture medium and incubated for 48 h. Fresh MTT was added to each well at the terminal concentration of 5 mg/mL in phosphate buffered saline (PBS), and incubated with cells at 37 °C for 4 h. The formazan crystals in each well were dissolved in 150 μL DMSO, and the absorbency at 570 nm was measured with an enzyme-linked immunosorbent assay plate reader. All of the compounds were tested three times in each of the cell lines.

HT-29 = assay: MTT anti-proliferative assay, HT-29; format: cell-based; conditions: Homo sapiens, 48 h
Procedure: as §1

PC-3 = assay: MTT anti-proliferative assay, PC-3; format: cell-based, human; conditions: for pIC50: Homo sapiens, PC-3, MTT, 48 h; for fold improvement in activity compared to Sorafenib, PC-3: PC-3, IC50 ratio to Sorafenib
Procedure: as §1

A549 = assay: MTT anti-proliferative assay, A549; format: cell-based, human; conditions: for pIC50: Homo sapiens, A549, MTT, 48 h
Procedure: as §1

[1] = MTT cytotoxic assay, normal cell line MDCK; conditions: dog, MDCK cells (normal cell line)
Procedure: as §1

in vitro = conditions: dog
Procedure: as §1

[2] = average of two independent experiments
[3] = 1000 nM, average of two independent experiments

T1 sequence (P15056 whole entry V600E): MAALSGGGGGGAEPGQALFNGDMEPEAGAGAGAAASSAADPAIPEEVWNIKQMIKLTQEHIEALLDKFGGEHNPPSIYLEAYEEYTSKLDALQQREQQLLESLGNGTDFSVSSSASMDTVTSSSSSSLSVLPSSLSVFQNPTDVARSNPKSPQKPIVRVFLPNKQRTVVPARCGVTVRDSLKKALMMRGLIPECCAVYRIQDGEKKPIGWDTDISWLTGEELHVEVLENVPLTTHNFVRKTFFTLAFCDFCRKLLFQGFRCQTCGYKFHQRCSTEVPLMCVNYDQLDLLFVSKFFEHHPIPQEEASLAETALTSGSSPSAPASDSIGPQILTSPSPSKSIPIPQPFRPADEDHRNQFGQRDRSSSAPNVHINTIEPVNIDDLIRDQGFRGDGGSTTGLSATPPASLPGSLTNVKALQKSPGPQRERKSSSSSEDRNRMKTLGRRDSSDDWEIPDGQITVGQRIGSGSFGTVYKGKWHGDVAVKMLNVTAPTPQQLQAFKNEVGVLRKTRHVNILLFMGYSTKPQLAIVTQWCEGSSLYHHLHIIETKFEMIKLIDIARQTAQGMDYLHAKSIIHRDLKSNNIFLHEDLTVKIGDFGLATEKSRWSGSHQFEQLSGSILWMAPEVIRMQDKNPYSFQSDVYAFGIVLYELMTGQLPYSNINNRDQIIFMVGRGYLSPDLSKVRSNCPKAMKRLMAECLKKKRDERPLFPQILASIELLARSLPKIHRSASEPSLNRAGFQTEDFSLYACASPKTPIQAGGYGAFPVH

Cc1ccc(NC(=O)Nc2ccc(Oc3ncnc4[nH]ncc34)cc2)cc1C [Compound 1t, 1-(4-((1H-Pyrazolo[3,4-d]pyrimidin-4-yl)oxy)phenyl)-3-(3,4-dimethylphenyl)urea]
inhibition at 0.1 µM (BRAF^V600E; [2]): 28% | inhibition at 1 µM (BRAF^V600E; [3]): 89% | pIC50 (A375): 4.12 | pIC50 (HT-29): < 4.10 | pIC50 (PC-3): < 4.10 | pIC50 (A549): < 4.10 | melting point: 249.9 to 250.6 °C | IC50 at 48 h [1]: > 80 µM

O=C(Nc1ccc(Oc2ncnc3[nH]ncc23)cc1)Nc1cc(C(F)(F)F)ccc1F [Compound 1n, 1-(4-((1H-Pyrazolo[3,4-d]pyrimidin-4-yl)oxy)phenyl)-3-(2-fluoro-5-(trifluoromethyl)phenyl)urea]
inhibition at 0.1 µM (BRAF^V600E; [2]): 30% | inhibition at 1 µM (BRAF^V600E; [3]): 87% | pIC50 (A375): 5.27 | pIC50 (HT-29): 4.56 | pIC50 (PC-3): 4.39 | pIC50 (A549): 4.49 | IC50 at 48 h [1]: 23.1 µM

CNC(=O)c1cc(Oc2ccc(NC(=O)Nc3ccc(Cl)c(C(F)(F)F)c3)cc2)ccn1 [Sorafenib, reference compound]
pIC50 (A375): 5.17 | pIC50 (HT-29): 5.09 | pIC50 (PC-3): 4.86 | pIC50 (A549): 4.86 | IC50 at 48 h [1]: 14.7 µM

CSc1cccc(NC(=O)Nc2ccc(Oc3ncnc4[nH]ncc34)cc2)c1 [Compound 1o, 1-(4-((1H-Pyrazolo[3,4-d]pyrimidin-4-yl)oxy)phenyl)-3-(3-(methylthio)phenyl)urea]
inhibition at 0.1 µM (BRAF^V600E; [2]): 29% | inhibition at 1 µM (BRAF^V600E; [3]): 69% | pIC50 (A375): < 4.10 | pIC50 (HT-29): < 4.10 | pIC50 (PC-3): 5.27 | pIC50 (A549): 4.52 | melting point: 227.3 to 228.4 °C | IC50 at 48 h [1]: > 80 µM

Cc1ccc([N+](=O)[O-])c(NC(=O)Nc2ccc(Oc3ncnc4[nH]ncc34)cc2)c1 [Compound 1r, 1-(4-((1H-Pyrazolo[3,4-d]pyrimidin-4-yl)oxy)phenyl)-3-(5-methyl-2-nitrophenyl)urea]
inhibition at 1 µM (BRAF^V600E; [3]): 22% | pIC50 (A375): < 4.10 | pIC50 (HT-29): < 4.10 | pIC50 (PC-3): < 4.10 | pIC50 (A549): < 4.10 | melting point: 359.7 to 360.2 °C | IC50 at 48 h [1]: > 80 µM

O=C(Nc1ccc(Oc2ncnc3[nH]ncc23)cc1)Nc1cccc(Br)c1 [Compound 1s, 1-(4-((1H-Pyrazolo[3,4-d]pyrimidin-4-yl)oxy)phenyl)-3-(3-bromophenyl)urea]
inhibition at 0.1 µM (BRAF^V600E; [2]): 10% | inhibition at 1 µM (BRAF^V600E; [3]): 71% | pIC50 (A375): 4.18 | pIC50 (HT-29): < 4.10 | pIC50 (PC-3): 5.26 | pIC50 (A549): < 4.10 | melting point: 234.5 to 237 °C | IC50 at 48 h [1]: > 80 µM

O=C(Nc1ccc(Oc2ncnc3[nH]ncc23)cc1)Nc1cccc([N+](=O)[O-])c1 [Compound 1m, 1-(4-((1H-Pyrazolo[3,4-d]pyrimidin-4-yl)oxy)phenyl)-3-(3-nitrophenyl)urea]
inhibition at 0.1 µM (BRAF^V600E; [2]): 3% | inhibition at 1 µM (BRAF^V600E; [3]): 62% | pIC50 (A375): 4.19 | pIC50 (HT-29): 4.50 | pIC50 (PC-3): 4.63 | pIC50 (A549): < 4.10 | melting point: 229.2 to 231.4 °C | IC50 at 48 h [1]: > 80 µM

O=C(Nc1ccccc1)Nc1ccc(Oc2ncnc3[nH]ncc23)cc1 [Compound 1e, 1-(4-((1H-Pyrazolo[3,4-d]pyrimidin-4-yl)oxy)phenyl)-3-phenylurea]
BRAF^V600E (%) inhibition at 1000 nM (BRAF^V600E; [3]): no inhibitory activity | inhibition at 1 µM (BRAF^V600E; [3]): 1% | pIC50 (A375): < 4.10 | pIC50 (HT-29): < 4.10 | pIC50 (PC-3): < 4.10 | pIC50 (A549): < 4.10 | melting point: 247.3 to 249.2 °C | IC50 at 48 h (in vitro): > 80 µM

O=C(Nc1ccc(Oc2ncnc3[nH]ncc23)cc1)Nc1cccc(Cl)c1 [Compound 1g, 1-(4-((1H-Pyrazolo[3,4-d]pyrimidin-4-yl)oxy)phenyl)-3-(3-chlorophenyl)urea]
inhibition at 1 µM (BRAF^V600E; [3]): 54% | pIC50 (A375): < 4.10 | pIC50 (HT-29): < 4.10 | pIC50 (PC-3): < 4.10 | pIC50 (A549): 4.15 | melting point: 234.8 to 236 °C | IC50 at 48 h [1]: > 80 µM

O=C(Nc1ccc(Cl)cc1)Nc1ccc(Oc2ncnc3[nH]ncc23)cc1 [Compound 1d, 1-(4-((1H-Pyrazolo[3,4-d]pyrimidin-4-yl)oxy)phenyl)-3-(4-chlorophenyl)urea]
inhibition at 1 µM (BRAF^V600E; [3]): 51% | pIC50 (A375): 4.10 | pIC50 (HT-29): < 4.10 | pIC50 (PC-3): 4.74 | pIC50 (A549): < 4.10 | IC50 at 48 h [1]: > 80 µM

Cc1cccc(NC(=O)Nc2ccc(Oc3ncnc4[nH]ncc34)cc2)c1C [Compound 1h, 1-(4-((1H-Pyrazolo[3,4-d]pyrimidin-4-yl)oxy)phenyl)-3-(2,3-dimethylphenyl)urea]
inhibition at 1 µM (BRAF^V600E; [3]): 27% | pIC50 (A375): < 4.10 | pIC50 (HT-29): < 4.10 | pIC50 (PC-3): 4.93 | pIC50 (A549): < 4.10 | melting point: 250.4 to 252.3 °C | IC50 at 48 h (in vitro): > 80 µM

CCc1cccc(NC(=O)Nc2ccc(Oc3ncnc4[nH]ncc34)cc2)c1 [Compound 1l, 1-(4-((1H-Pyrazolo[3,4-d]pyrimidin-4-yl)oxy)phenyl)-3-(3-ethylphenyl)urea]
inhibition at 0.1 µM (BRAF^V600E; [2]): 60% | inhibition at 1 µM (BRAF^V600E; [3]): 69% | pIC50 (BRAF^V600E): 7.29 | pIC50 (A375): 4.12 | pIC50 (HT-29): 4.15 | pIC50 (PC-3): < 4.10 | pIC50 (A549): 4.70 | melting point: 219.5 to 221.5 °C | IC50 at 48 h [1]: > 80 µM

O=C(Nc1ccc(Oc2ncnc3[nH]ncc23)cc1)Nc1cc(F)cc(C(F)(F)F)c1 [Compound 1j, 1-(4-((1H-Pyrazolo[3,4-d]pyrimidin-4-yl)oxy)phenyl)-3-(3-fluoro-5-(trifluoromethyl)phenyl)urea]
inhibition at 0.1 µM (BRAF^V600E; [2]): 37% | inhibition at 1 µM (BRAF^V600E; [3]): 67% | pIC50 (A375): 4.52 | pIC50 (HT-29): 4.30 | pIC50 (PC-3): 4.34 | pIC50 (A549): 4.22 | melting point: 249.2 to 250.6 °C | IC50 at 48 h [1]: > 80 µM

O=C(Nc1ccc(Oc2ncnc3[nH]ncc23)cc1)Nc1ccc(Cl)c(Cl)c1 [Compound 1c, 1-(4-((1H-Pyrazolo[3,4-d]pyrimidin-4-yl)oxy)phenyl)-3-(3,4-dichlorophenyl)urea]
inhibition at 0.1 µM (BRAF^V600E; [2]): 27% | inhibition at 1 µM (BRAF^V600E; [3]): 83% | pIC50 (A375): 4.53 | pIC50 (HT-29): 4.82 | pIC50 (PC-3): 4.95 | pIC50 (A549): 4.79 | melting point: 245 to 247.2 °C | IC50 at 48 h [1]: 35.5 µM

O=C(Nc1ccc(Oc2ncnc3[nH]ncc23)cc1)Nc1ccc(Cl)c(C(F)(F)F)c1 [Compound 1a, 1-(4-((1H-Pyrazolo[3,4-d]pyrimidin-4-yl)oxy)phenyl)-3-(4-chloro-3-(trifluoromet-hyl)phenyl)urea]
inhibition at 0.1 µM (BRAF^V600E; [2]): 37% | inhibition at 1 µM (BRAF^V600E; [3]): 90% | pIC50 (A375): 4.53 | pIC50 (HT-29): < 4.10 | pIC50 (PC-3): 4.71 | pIC50 (A549): 4.70 | IC50 at 48 h (in vitro): 17.8 µM

Cc1ccc(Cl)c(NC(=O)Nc2ccc(Oc3ncnc4[nH]ncc34)cc2)c1 [Compound 1f, 1-(4-((1H-Pyrazolo[3,4-d]pyrimidin-4-yl)oxy)phenyl)-3-(2-chloro-5-methylphenyl)urea]
inhibition at 1 µM (BRAF^V600E; [3]): 37% | pIC50 (A375): 4.21 | pIC50 (HT-29): 4.21 | pIC50 (PC-3): 5.95 | fold improvement in activity compared to Sorafenib, PC-3 (PC-3): 12 fold | fold improvement compared to Sorafenib, A549 (A549; A549, IC50 ratio to Sorafenib): 2 fold | pIC50 (A549): 5.28 | melting point: 230.2 to 232.4 °C | IC50 at 48 h [1]: > 80 µM

Cc1cccc(NC(=O)Nc2ccc(Oc3ncnc4[nH]ncc34)cc2)c1 [Compound 1b, 1-(4-((1H-Pyrazolo[3,4-d]pyrimidin-4-yl)oxy)phenyl)-3-(m-tolyl)urea]
inhibition at 1 µM (BRAF^V600E; [3]): 46% | pIC50 (A375): < 4.10 | pIC50 (HT-29): < 4.10 | pIC50 (PC-3): < 4.10 | pIC50 (A549): 4.12 | melting point: 227.4 to 230 °C | IC50 at 48 h [1]: > 80 µM

Cn1ncc2c(Oc3ccc(NC(=O)Nc4cccc(Cl)c4)cc3)ncnc21 [Compound 1u, 1-(3-Chlorophenyl)-3-(4-((1-methyl-1H-pyrazolo[3,4-d]pyrimidin-4-yl)oxy)phenyl)urea]
inhibition at 0.1 µM (BRAF^V600E; [2]): 61% | inhibition at 1 µM (BRAF^V600E; [3]): 93% | pIC50 (BRAF^V600E): 7.42 | pIC50 (A375): 4.88 | pIC50 (HT-29): < 4.10 | pIC50 (PC-3): 4.16 | pIC50 (A549): < 4.10 | melting point: 309.8 to 312 °C | IC50 at 48 h [1]: > 80 µM

N#Cc1cccc(NC(=O)Nc2ccc(Oc3ncnc4[nH]ncc34)cc2)c1 [Compound 1p, 1-(4-((1H-Pyrazolo[3,4-d]pyrimidin-4-yl)oxy)phenyl)-3-(3-cyanophenyl)urea]
inhibition at 1 µM (BRAF^V600E; [3]): 48% | pIC50 (A375): 4.21 | pIC50 (HT-29): 4.40 | pIC50 (PC-3): 4.51 | pIC50 (A549): 4.23 | melting point: 235.2 to 237.4 °C | IC50 at 48 h [1]: > 80 µM

O=C(Nc1ccc(Oc2ncnc3[nH]ncc23)cc1)Nc1cc(C(F)(F)F)ccc1Cl [Compound 1i, 1-(4-((1H-Pyrazolo[3,4-d]pyrimidin-4-yl)oxy)phenyl)-3-(2-chloro-5-(trifluoromethyl)phenyl)urea]
inhibition at 0.1 µM (BRAF^V600E; [2]): 52% | inhibition at 1 µM (BRAF^V600E; [3]): 83% | pIC50 (A375): 4.57 | pIC50 (HT-29): 4.20 | pIC50 (PC-3): 5.95 | fold improvement in activity compared to Sorafenib, PC-3 (PC-3): 12 fold | pIC50 (A549): 4.22 | melting point: 239.2 to 240.3 °C | IC50 at 48 h [1]: > 80 µM

COC(=O)c1cccc(NC(=O)Nc2ccc(Oc3ncnc4[nH]ncc34)cc2)c1 [Compound 1q, Methyl-3-(3-(4-((1H-pyrazolo[3,4-d]pyrimidin-4-yl)oxy)phenyl)ureido)benzoate]
inhibition at 1 µM (BRAF^V600E; [3]): 32% | pIC50 (A375): < 4.10 | pIC50 (HT-29): < 4.10 | pIC50 (PC-3): 4.65 | pIC50 (A549): < 4.10 | melting point: 217.3 to 220.1 °C | IC50 at 48 h [1]: > 80 µM
